Assay results taken from patent US6603046B1, “Bis-aromatic a,β-unsaturated ketones” (Lica Pharmaceuticals A/S, priority 1992, dated 2003).
Values after ≈ are worked out from the molar mass of the structure shown. Like-named read-outs stand apart in the source and are kept apart here.

Experiments:
[1] = system: human lymphocytes, neutrophils, and monocytes; assay: Trypan blue dye exclusion method; type: cell-based; settings: 20 μg/ml
Method: Trypan blue dye exclusion method. This is a standard method used to determine cell viability. The assay is performed by incubating a given cell suspension with trypan blue for various periods of time after which the cells are examined under microscope. Dead cells will take up the dye and therefore show a blue colour. Percent viability is determined by counting at least a total of 200 cells.

human lymphocytes = assay: Lymphocyte Proliferation Assay, 3H-thymidine incorporation (Example 13); settings: Homo sapiens, Lymphocyte
Helicobacter pylori = assay: MIC on Helicobacter pylori, microaerophilic (Example 18); type: cell-based
Method: Bacteria. 16 recent clinical isolates of Helicobacter pylori from patients with duodenal ulcer or chronic gastritis. […] Staphylococcus aureus ATCC 25923 was used as control strain. The Helicobacter pylori strains were subcultured on chocolate agar plates with cysteine in a microaerophilic atmosphere at 37° C. for 72 hours and kept frozen at −80° C. until assayed. MIC determinations. Macrodilution rows were made with Helicomedia with 2 ml in all vials. […] All dilution rows were inoculated to give a final concentration of 10^5 CFU/ml. The MIC rows were incubated under microaerophilic conditions for […]. […] The control strain Staphylococcus aureus was incubated both aerobically and microaerophilically at 37° C. for 24 hours. All plates were read by the Karber method.

[2] = Serum concentration in rabbits after intravenous administration (Example 20); type: in vivo; settings: rabbit
Method: Number of rabbits: 1 rabbit for each group
Dose: 20 mg per kg body weight
Route: Intravenously, administered once
Samples: Samples were drawn from each rabbit twice.
Serum or plasma was diluted with one part of acetonitrile, left for 15 min at 4° C., and centrifugated for 3 min at 10,000 g. An aliquot of the supernatant was chromatographed at 37° C. by HPLC over Spherisorb ODS-2 (5 μm, 120×4.5 mm, Phase Separation LTD, UK) using acetonitrile aqueous acetic acid, 2%, (1:1) as an eluent, flow rate 1.5 ml/min, and UV detection (370 nm and 254 nm).

Strain = H37RV = assay: MIC with and without 10% human serum; type: cell-based; settings: for MIC: Mycobacterium tuberculosis, H37RV
[3] = system: L. major in human PBM-derived macrophages; assay: L. major in human PBM-derived macrophages, microscopic counting (Example 7); type: cell-based, Leishmania major
L. major = assay: In vivo growth of L. major in BALB/c mice (Example 8); design: key to amastigotes findings on the impression smear, Spleen / amastigotes findings on the impression smear, Liver: −: no parasite amastigotes detected in 5 fields of microscopical vision; +: parasite amastigotes from 5 fields of microscopical vision < 100; ++: parasite amastigotes from 5 fields of microscopical vision = 100-500; +++: parasite amastigotes from 5 fields of microscopical vision = 500-1000; settings: for parasitic load of the footpad, 3H-thymidine uptake (mean) / parasitic load of the liver, 3H-thymidine uptake (mean): 42 days
Method: Mice. BALB/c female mice aged eight weeks old were used throughout. Parasite. The maintenance, cultivation, and isolation of the promastigote-stage of the parasite L. major (WHO reference vaccine strain) have been described in detail in Example 4. […] The lesions that developed in the footpad were measured with a dial-calliper and expressed as footpad thickness increase (in mm). The footpad thickness of mice was measured before infection and every 3 days after 7 days of infection. From 7 days of infection, mice received licochalcone A injections i.p. or intralesionally once a day. After 42 days of licochalcone A injection, some of the mice were killed and the footpads, spleens and livers removed. The parasite loads in the footpads and livers were estimated by a modification of the method described by Liew et al. 1990. […] Incubation was carried out at 28° C. for 3 days and then pulsed with 1 μCi of ^3H-thymidine. Cultures were harvested 18 h later on filter paper by a cell harvester (Skatron, Lierbyen, Norway), extensively washed with distilled water and counted in a scintillation counter (Minaxi Ti-Carb 4000, United Technologies, Packard, USA). The results were expressed as cpm. The footpads, spleens and livers impression was also estimated. Drugs. One mg of licochalcone A was dissolved in 20 μl of 99% (v/v) ethanol, and then 980 μl of medium 199 was added an the resulting mixture was stored at −20° C. before use.

[4] = read-out: inhibition of lymphocytes (lower figure)
[5] = read-out: percentage inhibition of lymphocyte proliferation response ±SEM
[6] = Helicobacter pylori, 16 clinical isolates
[7] = 3 days after infection, 0.5 μg/ml
[8] = 3 days after infection, 1 μg/ml
[9] = 6 days after infection, 0.5 μg/ml
[10] = 6 days after infection, 1 μg/ml

C=CC(C)(C)c1cc(/C=C/C(=O)c2ccc(O)cc2)c(OC)cc1O [Licochalcone A, licochalcone A]
toxic effect, trypan blue dye exclusion [1]: no toxic effect | inhibition at 0.5 µg/mL (human lymphocytes; [4]): 4.7% | inhibition at 1 µg/mL (human lymphocytes; [4]): 7.7% | inhibition at 5 µg/mL (human lymphocytes; [4]): 20.8% | inhibition at 10 µg/mL (human lymphocytes; [4]): 39.7% | inhibition at 1 µg/mL (human lymphocytes; [5]): 4.7 ± 5.6% | inhibition at 2 µg/mL (human lymphocytes; [5]): 7.8 ± 5.7% | inhibition at 5 µg/mL (human lymphocytes; [5]): 20.8 ± 4.8% | inhibition at 10 µg/mL (human lymphocytes; [5]): 39.7 ± 5.4% | inhibition at 20 µg/mL (human lymphocytes; [5]): 65.3 ± 7% | MIC Range (Helicobacter pylori; 16 clinical isolates): 16 to 125 µg/mL | MIC50 (Helicobacter pylori; [6]): 62 µg/mL (≈ 183 µM) | MIC90 (Helicobacter pylori; [6]): 125 µg/mL (≈ 369 µM) | MIC (Helicobacter pylori; Helicobacter pylori, read-out: MIC of the only strain with a low MIC): 16 µg/mL | concentration at 24 h ([2]; 24 hours after intravenous 20 mg per kg, detection limit): < 50 ng/mL | concentration at 1 h ([2]; one hour following intravenous 20 mg per kg): 350 ng/mL | increase of MIC when supplemented with 10% of serum (Strain = H37RV): 8 fold | MIC (Strain = H37RV; read-out: MIC+serum): 40 µg/mL (≈ 118 µM) | MIC (Strain = H37RV; read-out: MIC−serum): 5 µg/mL (≈ 14.8 µM) | % of amast. [3, 7]: 91.6% | % of infec. cells [3, 7]: 14.0% | amast. per cell [3, 7]: 1.7 | proma. per cell [3, 7]: 0.1 | total amast. [3, 7]: 23.3 ×10^6 | total proma. [3, 7]: 2.0 ×10^6 | % of amast. [3, 8]: 88.2% | % of infec. cells [3, 8]: 10.7% | amast. per cell [3, 8]: 1.7 | proma. per cell [3, 8]: 0.2 | total amast. [3, 8]: 17.7 ×10^6 | total proma. [3, 8]: 2.0 ×10^6 | % of infec. cells ([3]; 3 days after infection, 5 μg/ml): 0% | % of infec. cells ([3]; 3 days after infection, 10 μg/ml): 0% | % of amast. [3, 9]: 100% | % of infec. cells [3, 9]: 8.0% | amast. per cell [3, 9]: 1.7 | proma. per cell [3, 9]: 0 | total amast. [3, 9]: 14 ×10^6 | total proma. [3, 9]: 0 ×10^6 | % of amast. [3, 10]: 100% | % of infec. cells [3, 10]: 7.3% | amast. per cell [3, 10]: 2.2 | proma. per cell [3, 10]: 0 | total amast. [3, 10]: 16 ×10^6 | total proma. [3, 10]: 0 ×10^6 | % of infec. cells ([3]; 6 days after infection, 5 μg/ml): 0% | % of infec. cells ([3]; 6 days after infection, 10 μg/ml): 0% | amastigotes findings on the impression smear, Footpad (L. major; 20 μg intralesional): + (parasite amastigotes from 5 fields of microscopical vision < 100) | amastigotes findings on the impression smear, Liver (L. major; 20 μg intralesional): + (parasite amastigotes from 5 fields of microscopical vision < 100) | amastigotes findings on the impression smear, Spleen (L. major; 20 μg intralesional): + (parasite amastigotes from 5 fields of microscopical vision < 100) | parasitic load of the footpad, 3H-thymidine uptake (mean) (L. major; 20 μg intralesional once a day): 243.5 ×10^3 cpm | parasitic load of the liver, 3H-thymidine uptake (mean) (L. major; 20 μg intralesional once a day): 10.8 ×10^3 cpm | amastigotes findings on the impression smear, Footpad (L. major; 50 μg i.p.): + (parasite amastigotes from 5 fields of microscopical vision < 100) | amastigotes findings on the impression smear, Liver (L. major; 50 μg i.p.): − | amastigotes findings on the impression smear, Spleen (L. major; 50 μg i.p.): − | parasitic load of the footpad, 3H-thymidine uptake (mean) (L. major; 50 μg i.p. once a day): 58.0 ×10^3 cpm | parasitic load of the liver, 3H-thymidine uptake (mean) (L. major; 50 μg i.p. once a day): 11.7 ×10^3 cpm | amastigotes findings on the impression smear, Footpad (L. major; 50 μg intralesional): + (parasite amastigotes from 5 fields of microscopical vision < 100) | amastigotes findings on the impression smear, Liver (L. major; 50 μg intralesional): + (parasite amastigotes from 5 fields of microscopical vision < 100) | amastigotes findings on the impression smear, Spleen (L. major; 50 μg intralesional): + (parasite amastigotes from 5 fields of microscopical vision < 100) | parasitic load of the footpad, 3H-thymidine uptake (mean) (L. major; 50 μg intralesional once a day): 282.6 ×10^3 cpm | parasitic load of the liver, 3H-thymidine uptake (mean) (L. major; 50 μg intralesional once a day): 20.8 ×10^3 cpm | amastigotes findings on the impression smear, Footpad (L. major; 100 μg i.p.): + (parasite amastigotes from 5 fields of microscopical vision < 100) | amastigotes findings on the impression smear, Liver (L. major; 100 μg i.p.): − | amastigotes findings on the impression smear, Spleen (L. major; 100 μg i.p.): − | parasitic load of the footpad, 3H-thymidine uptake (mean) (L. major; 100 μg i.p. once a day): 89.0 ×10^3 cpm | parasitic load of the liver, 3H-thymidine uptake (mean) (L. major; 100 μg i.p. once a day): 12.8 ×10^3 cpm
